Measured values taken from PMC10526274, “Epithelial-Immune Cell Crosstalk Determines the Activation of Immune Cells In Vitro by the Human Cathelicidin LL-37 at Low Physiological Concentrations” (Biomolecules, 2023).
Values joined by “and” are separate entries in the source; they are usually repeats but may differ in a detail not shown here. Identical values can stand only once.

Tested on: monocyte-derived dendritic cells (moDCs)
Experiment: Multiplex xMAP cytokine levels, moDCs alone stimulated with LL-37
Type: cell-based, human
Settings: 1 µM LL-37, 24 h
Protocol: Peripheral blood mononuclear cells (PBMCs) from a healthy donor were purchased from the American Type Culture Collection (ATCC PCS-800-011). Blood monocytes were isolated from PBMCs by plastic adhesion. Mature monocyte-derived dendritic cells (moDCs) were generated in vitro from peripheral blood monocytes, according to Nair et al.. Briefly, monocytes were cultured in a humidified CO2-incubator (5% CO2, 37 °C) in the complete RPMI-1640 medium (Gibco) with 10% FBS, antibiotics, and supplemented with a cytokine cocktail containing 500 U/mL rhIL-4 and 800 U/mL rhGM-CSF (both Sci-Store, Moscow, Russia). On the third day, the medium was replaced by the same fresh medium with FBS, antibiotics, and the cytokine cocktail. Induction of maturation of the immature monocyte-derived dendritic cells was performed on the 5th day by replacing the medium with the complete RPMI-1640 medium (Gibco) with 10% FBS and antibiotics, supplemented with a cytokine cocktail containing 500 U/mL rhIL-4, 800 U/mL rhGM-CSF (both Sci-Store, Moscow, Russia), and 100 U/mL rhTNF-α (Sigma-Aldrich), and subjected to subsequent incubation of the culture for 4 more days.
Primary blood monocytes, moDCs, and NKT cells were seeded in 600 µL of complete RPMI-1640 with 10% Human AB serum (Capricorn Scientific, Ebsdorfergrund, Germany) and supplemented with 1X antibiotic–antimycotic solution into the wells of 24-well plates at a density of 3–7 × 10^5 cells/well 24 h before the experiment. Then, 24 h later, the medium in each well was replaced by the same medium with 1 µM of LL-37 for the sample wells or fresh medium alone for the control wells, and the permeable inserts with the Caco-2 monolayer with TEER > 400 Ω × cm^2, containing 400 μL of the complete medium in their apical chamber, were immediately placed into the appropriate wells. Also, inserts with the Caco-2 monolayer were placed in cell-free wells of 24-well plates in the same complete RPMI-1640 medium with or without 1 µM of LL-37 as controls. Cells were kept in a CO2-incubator (5% CO2, 37 °C) for another 24 h. Then, culture medium from each well was collected, centrifuged, and frozen at −70 °C.
To quantitatively evaluate a broad spectrum of analytes secreted by human cell cultures at the protein level, multiplex xMAP technology was used. The chosen panel (cat. #HCYTA-60K-PX48, Merck, Darmstadt, Germany) included 48 different magnetic beads with primary antibodies to the following cytokines, chemokines, and growth factors: CCL11 (Eotaxin-1), Flt-3 ligand, CX3CL1 (Fractalkine), sCD40L, FGF-2, EGF, GROα, GM-CSF, G-CSF, IL-1RA, IL-1α, IL-1β, IL-2, IL-3, IL-4, IL-5, IL-6, IL-7, CXCL8 (IL-8), IL-9, IL-10, IL-12p40, IL-12p70, IL-13, IL-15, IL-17A (CTLA8), IL-17E (IL-25), IL-17F, IL-18, IL-22, IL-27, IFNγ, IFNα2, CXCL10 (IP-10), CCL2 (MCP-1), CCL7 (MCP-3), CCL22 (MDC), CXCL9 (MIG), CCL3 (MIP-1α), CCL4 (MIP-1β), CCL5 (RANTES), M-CSF, PDGF-AA, PDGF-AB/BB, TNFα, TNFβ, TGFα, and VEGF-A. The assay was performed in accordance with the manufacturer’s instructions with overnight incubation of the samples with primary antibodies, and the plate was read on a MAGPIX System (Merck) using the xPONENT 4.2 software (Merck). The acquired fluorescence data were analyzed by the MILLIPLEX Analyst v5.1 software (Merck), which realized an advanced curve-fitting algorithm. Levels of the analytes in control and experimental samples were compared with an unpaired two-sample t-test using GraphPad Prism v.8.0.1 (GraphPad Software, Inc., San Diego, CA, USA). The p-values ≤ 0.05 were considered significant.

LL-37: the only human cathelicidin, host defense antimicrobial peptide of 37 a.a. residues, produced by solid-phase peptide synthesis
FLT-3L level (n=2, control 0.57): 0.51 pg/mL
IL-2 level (n=2, control 0.91): 0.91 pg/mL
IL-4 level (n=2, control 1.14): 1.31 pg/mL
TNFb level (n=2, control 1.49): 1.3 pg/mL
IL-3 level (n=2, control 1.55): 0.91 pg/mL
IL-18 level (n=2, control 1.61): 0.63 pg/mL
VEGFa level (n=2, control 2.82): 4.61 pg/mL
IL-15 level (n=2, control 4.12): 4.36 pg/mL
IL-5 level (n=2, control 4.63): 3.23 pg/mL
IFNg level (n=2, control 5.89): 5.02 pg/mL
EGF level (n=2, control 7.65): 6.75 pg/mL
IL-9 level (n=2, control 8.22): 7.84 pg/mL
IL-1b level (n=2, control 9.37): 7 pg/mL
IFNa2 level (n=2, control 10.16): 11.65 pg/mL
IL-1RA level (n=2, control 11.72): 11.72 pg/mL
GM-CSF level (n=2, control 13.02): 10.06 pg/mL
IL-22 level (n=2, control 13.22): 11.11 pg/mL
G-CSF level (n=2, control 20.3): 13.54 pg/mL
PDGF-AA level (n=2, control 24.8): 25.69 pg/mL
TGF-a level (n=2, control 25.07): 20.52 pg/mL
IL-6 level (n=2, control 27.8): 30.65 pg/mL
Fractalkine level (n=2, control 28.72): 25.92 pg/mL
IL-13 level (n=2, control 36.28): 29.87 pg/mL
TNFa level (n=2, control 40.81): 40.03 pg/mL
FGF-2 level (n=2, control 48.6): 47.27 pg/mL
GROa level (n=2, control 51.39): 53.94 pg/mL
IL-27 level (n=2, control 55.75): 59.83 pg/mL
IL-12 (p40) level (n=2, control 61.22): 61.22 pg/mL
IP-10 level (n=2, control 66.42): 57.64 pg/mL
PDGF-AB/BB level (n=2, control 72.4): 70.07 pg/mL
IL-10 level (n=2, control 89.23, p = 0.0058): 62 pg/mL and 62.12 pg/mL
sCD40L level (n=2, control 98.84): 95.47 pg/mL
M-GSF level (n=2, control 200.96): 185.65 pg/mL
RANTES level (n=2, control 423.03): 417.4 pg/mL
MCP-3 level (n=2, control 573.83): 545.69 pg/mL
MIP-1b level (n=2, control 2042): 2065 pg/mL
MIP-1a level (n=2, control 2533): 2368 pg/mL
MCP-1 level (n=2, control 3176): 2573 pg/mL
IL-8 level (n=2, control 4102): 4051 pg/mL
MIG level (n=2, control 27057): 23618 pg/mL
IL-7 level (n=2, control <0.30): <0.30↓ pg/ml
IL-17A level (n=2, control <0.70): <0.70↓ pg/ml
IL-1a level (n=2, control <1.30): <1.30↓ pg/ml
IL-12 (p70) level (n=2, control <1.71): <1.71↓ pg/ml
Eotaxin level (n=2, control <2.91): <2.91↓ pg/ml
IL-17F level (n=2, control <12.19): <12.19↓ pg/ml
IL-17E/IL-25 level (n=2, control <19.43): <19.43↓ pg/ml
MDC level (n=2, control >14590): >14590↑ pg/ml
